# Results published in PMC6354023, “A phase I study of the HDM2 antagonist SAR405838 combined with the MEK inhibitor pimasertib in patients with advanced solid tumours” (British Journal of Cancer, 2018).
# Like-named read-outs stand apart in the source and are kept apart here.
# How the values were obtained:
# [1] = Safety assessments: adverse events (NCI-CTCAE v4.03), laboratory abnormalities; format: in vivo, human; conditions: of 26 treated patients, in combination
# Method: Safety was assessed by the evaluation of AEs, DLTs, changes in vital signs, ECOG PS, physical examinations,12-lead electrocardiograms, determination of LVEF, ophthalmological examinations and clinical laboratory tests (including haematology, coagulation, blood chemistry and urinalysis).
# [2] = Pharmacokinetics of SAR405838 (whole-blood concentrations) in combination; format: in vivo, human; conditions: SAR405838 and pimasertib administered in combination
# Description: (§1) Blood samples were collected on Days 1 (for pimasertib only), 2, 3, 8 and 15 of Cycle 1, on Days 1 and 2 of Cycle 2, and on Day 1 of Cycles 3 and 4, to determine the whole-blood and plasma concentrations of SAR405838 and pimasertib, respectively.
# [3] = Pharmacokinetics of pimasertib (plasma concentrations) in combination; format: in vivo, human; conditions: for AUC(0-t) / Cmax / half-life / Tmax: human, plasma, oral; for AUC(0-t): read-out: Pimasertib AUC0–12, mean ± SD; for Cmax: read-out: Pimasertib Cmax, mean ± SD; for half-life: read-out: Pimasertib t1/2 (converted); for Tmax: read-out: Pimasertib tmax, median (range)
# Description: as §1
# [4] = tested on: pERK; test: pERK levels in PMA-stimulated PBMCs by flow cytometry; format: in vivo, human
# Method: MIC-1 protein concentrations were measured in plasma samples using an analytically validated enzyme-linked immunosorbent assay (Quantikine® Human GDF-15 immunoassay). pERK levels were determined by evaluating median value changes in response to ex vivo stimulation with or without phorbol myristate acetate (PMA) over time in whole-blood samples (CD 45^+ and lymphocyte populations) by flow cytometry (BD FACSCanto™ II instrument). Stimulated pERK levels were calculated as percentage (PMA-dimethylsulphoxide [DMSO])/DMSO).
# [5] = set-up: method as in doi:10.1016/S0959-8049(12)72401-2; conditions: cited from earlier work
# [6] = DL1 SAR405838 200 mg QD + pimasertib 45 mg BID, C1D2
# [7] = DL1 SAR405838 200 mg QD + pimasertib 45 mg BID, C2D1
# [8] = DL2a SAR405838 200 mg QD + pimasertib 60 mg QD, C1D1
# [9] = DL2a SAR405838 200 mg QD + pimasertib 60 mg QD, C1D2
# [10] = DL2b SAR405838 300 mg QD + pimasertib 45 mg BID, C1D1
# [11] = DL2b SAR405838 300 mg QD + pimasertib 45 mg BID, C1D2
# [12] = DL2b SAR405838 300 mg QD + pimasertib 45 mg BID, C2D1
# [13] = DL3a SAR405838 300 mg QD + pimasertib 60 mg QD, C1D1
# [14] = DL3a SAR405838 300 mg QD + pimasertib 60 mg QD, C1D2
# [15] = DL3a SAR405838 300 mg QD + pimasertib 60 mg QD, C2D1
# [16] = DL1 SAR405838 200 mg QD + pimasertib 45 mg BID, C1D1
# [17] = DL2a SAR405838 200 mg QD + pimasertib 60 mg QD, C2D1
structure (smiles),measurement,setting,value
O=C(NC[C@H](O)CO)c1ccncc1Nc1ccc(I)cc1F [pimasertib],"Patients with dose modification, reduction or omission",[1],18 patients
same,PK in combination compared with PK as monotherapy,[2],similar
same,"Pimasertib tmax, median (range)",[3]; [6],1.5 [0.5–2] (7) h
same,"Pimasertib tmax, median (range)",[3]; [7],1.5 [0.5–1.5] (6) h
same,"Pimasertib AUC0–12, mean ± SD",[3]; [8],1120 ± 410 (4; 37) ng.h/mL
same,"Pimasertib tmax, median (range)",[3]; [8],1.5 [0.5–1.5] (4) h
same,"Pimasertib AUC0–12, mean ± SD",[3]; [9],1130 ± 422 (4; 37) ng.h/mL
same,"Pimasertib tmax, median (range)",[3]; [10],1.5 [0.5–1.5] (7) h
same,"Pimasertib tmax, median (range)",[3]; [11],1.5 [1.5–2] (7) h
same,"Pimasertib tmax, median (range)",[3]; [12],1.5 [0.5–2] (6) h
same,Pimasertib t1/2,[3]; [13],5.25 ± 1.83 (7; 35) h
same,"Pimasertib tmax, median (range)",[3]; [14],1.5 [0.5-2] (7) h
same,"Pimasertib tmax, median (range)",[3]; [15],1.5 [0.5–1.5] (5) h
same,Exposure change with dose increase (33%),[3]; between DL1/DL2b (pimasertib 45 mg BID) and DL2a/DL3a (pimasertib 60 mg BID),resulted in pimasertib exposure increase
same,AUC(0-t),[3]; [16],755 ± 382 ng·h/mL
same,Cmax,[3]; [16],218 ± 108 ng/mL
same,half-life,[3]; [16],4.76 ± 1.17 h
same,Tmax,[3]; [16],0.5 h
same,AUC(0-t),[3]; [6],689 ± 324 ng·h/mL
same,Cmax,[3]; [6],200 ± 102 ng/mL
same,AUC(0-t),[3]; [7],862 ± 350 ng·h/mL
same,Cmax,[3]; [7],226 ± 70.6 ng/mL
same,Cmax,[3]; [8],301 ± 69.9 ng/mL
same,half-life,[3]; [8],5.38 ± 0.276 h
same,Cmax,[3]; [9],303 ± 134 ng/mL
same,Tmax,[3]; [9],1 h
same,AUC(0-t),[3]; [17],1040 ± 504 ng·h/mL
same,Cmax,[3]; [17],269 ± 134 ng/mL
same,AUC(0-t),[3]; [10],779 ± 594 ng·h/mL
same,Cmax,[3]; [10],184 ± 109 ng/mL
same,half-life,[3]; [10],4.71 ± 1.39 h
same,AUC(0-t),[3]; [11],684 ± 367 ng·h/mL
same,Cmax,[3]; [11],182 ± 110 ng/mL
same,AUC(0-t),[3]; [12],532 ± 166 ng·h/mL
same,Cmax,[3]; [12],147 ± 93.8 ng/mL
same,AUC(0-t),[3]; [13],935 ± 469 ng·h/mL
same,Cmax,[3]; [13],221 ± 98.3 ng/mL
same,Tmax,[3]; [13],1 h
same,AUC(0-t),[3]; [14],917 ± 390 ng·h/mL
same,Cmax,[3]; [14],200 ± 84.4 ng/mL
same,AUC(0-t),[3]; [15],765 ± 314 ng·h/mL
same,Cmax,[3]; [15],243 ± 65.4 ng/mL
same,Time pERK inhibition was maintained,[4],4 h
same,pERK inhibition,"[4]; C1D1, C1D2 and C2D1, at or around tmax of pimasertib, at most DLs",≥ 80%
same,"Recommended phase II dose, monotherapy",[5]; BID,60 mg
same,"MTD, monotherapy, QD regimen",[5]; once daily,90 mg
same,"DLTs, monotherapy",[5]; phase I dose-escalation trial,"skin rash, acneiform dermatitis, ocular events and stomatitis"
same,"MTD, monotherapy, BID regimen",[5]; twice daily,60 mg
